Data taken from ChEMBL document CHEMBL1201862, “PubChem BioAssay data set” (2004).
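Step 1: Grow cells in 96-well plates. Step 2: Expose to compound for 48 hours at 5 concentrations. Step 3: Interpolate endpoints linearly; if unreached, use highest concentration. GI50: concentration for 50% inhibition of growth.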 The source made the active and inactive calls. Cut-off read from the data, not from the text of the source: active = GI50 up to about 1.1 µM and inactive = higher.

Experiments:
Experiment in all cases: DTP human tumour cell line panel, 48 h
ACHN = system: ACHN
COLO 205 = system: COLO 205
DU-145 = system: DU-145
EKVX = system: EKVX
HL-60 = system: HL-60
KM12 = system: KM12
MOLT-4 = system: MOLT-4
Malme-3M = system: Malme-3M
NCI-H226 = system: NCI-H226
NCI-H522 = system: NCI-H522
NCI/ADR-RES = system: NCI/ADR-RES
OVCAR-3 = system: OVCAR-3
SF-295 = system: SF-295
SK-MEL-5 = system: SK-MEL-5
SN12C = system: SN12C
TK-10 = system: TK-10
UACC-62 = system: UACC-62
HOP-92 = system: HOP-92
MDA-MB-231 = system: MDA-MB-231

Measured: GI50

COc1cc(/C=C(\C#N)c2ccccn2)cc(Br)c1O
inactive: ACHN 97.7 µM | COLO 205 35.5 µM | DU-145 > 100 µM | EKVX 97.5 µM | HL-60 24 µM | KM12 36.1 µM | MOLT-4 35 µM | Malme-3M 26.4 µM | NCI-H226 72.6 µM | NCI-H522 27.5 µM | NCI/ADR-RES 20.9 µM | OVCAR-3 31.8 µM | SF-295 37.8 µM | SK-MEL-5 40.1 µM | SN12C 45.2 µM | TK-10 > 100 µM | UACC-62 55.7 µM

O=c1[nH]c2ccc(Cl)cc2c2oc(-c3ccccc3)nc12
inactive: ACHN 24.5 µM | COLO 205 65.8 µM | EKVX 30.5 µM | HOP-92 28.4 µM | KM12 40.8 µM | MDA-MB-231 19.3 µM | MOLT-4 76.2 µM | Malme-3M 29.3 µM | NCI-H226 21.2 µM | NCI-H522 16.9 µM | NCI/ADR-RES 29.5 µM | OVCAR-3 21.2 µM | SF-295 21.6 µM | SK-MEL-5 25.9 µM | SN12C 21.7 µM | TK-10 35.5 µM | UACC-62 70.5 µM

Cc1ccc(-c2c(C#N)c(-c3ccc(C)cc3)n(NS(=O)(=O)c3ccccc3)c(=O)c2C#N)cc1
inactive: ACHN 37.5 µM | COLO 205 89.5 µM | EKVX 56.6 µM | HOP-92 28.6 µM | KM12 56.5 µM | MDA-MB-231 > 100 µM | MOLT-4 25.2 µM | Malme-3M 86.5 µM | NCI-H226 > 100 µM | NCI-H522 50.1 µM | NCI/ADR-RES 50.5 µM | SF-295 32.5 µM | SK-MEL-5 16 µM | SN12C 62.2 µM | TK-10 76.2 µM | UACC-62 34.1 µM

COc1cc(C(=O)N(C(=O)N2CCCCC2)c2ccccc2)cc(OC)c1OC
inactive: ACHN > 100 µM | COLO 205 > 100 µM | DU-145 > 100 µM | EKVX > 100 µM | HOP-92 > 100 µM | KM12 > 100 µM | MDA-MB-231 > 100 µM | MOLT-4 > 100 µM | NCI-H226 > 100 µM | NCI/ADR-RES > 100 µM | OVCAR-3 > 100 µM | SF-295 > 100 µM | SK-MEL-5 > 100 µM | SN12C > 100 µM | UACC-62 > 100 µM

COc1cc(OC)c(C2c3cc4c(cc3OC(N3CCOCC3)C2C)OCO4)c(OC)c1 (stereo not drawn)
inactive: ACHN 12.3 µM | COLO 205 35.2 µM | DU-145 21.5 µM | EKVX 80.5 µM | KM12 24.5 µM | MOLT-4 21.4 µM | NCI-H522 > 100 µM | NCI/ADR-RES 34.8 µM | OVCAR-3 7.29 µM | SF-295 14.7 µM | SK-MEL-5 47 µM | SN12C 67 µM | TK-10 > 100 µM | UACC-62 29.9 µM

COc1ccc(-n2cnc3c(NC(C)(C)C(=O)O)ncnc32)cc1
inactive: ACHN > 100 µM | COLO 205 > 100 µM | DU-145 > 100 µM | EKVX 84.9 µM | HOP-92 > 100 µM | KM12 > 100 µM | MDA-MB-231 > 100 µM | MOLT-4 > 100 µM | NCI-H226 > 100 µM | NCI/ADR-RES > 100 µM | OVCAR-3 > 100 µM | SF-295 > 100 µM | SK-MEL-5 > 100 µM | SN12C > 100 µM | TK-10 > 100 µM | UACC-62 > 100 µM

CC(=O)c1sc2c(c1O)c(=O)n(-c1ccccc1)c(=S)n2-c1ccccc1
inactive: COLO 205 > 100 µM | DU-145 > 100 µM | HL-60 > 100 µM | HOP-92 > 100 µM | KM12 > 100 µM | MDA-MB-231 > 100 µM | MOLT-4 > 100 µM | Malme-3M > 100 µM | NCI-H226 > 100 µM | NCI-H522 > 100 µM | OVCAR-3 > 100 µM | SF-295 > 100 µM | SK-MEL-5 > 100 µM | SN12C > 100 µM | TK-10 > 100 µM | UACC-62 > 100 µM

CCOC(=O)c1ccc(N(C)Cc2cnc3nc(N)nc(N)c3n2)cc1
inactive: ACHN 5.05 µM | COLO 205 > 100 µM | DU-145 15.8 µM | EKVX 24.6 µM | HL-60 80.4 µM | KM12 15.8 µM | MDA-MB-231 21.7 µM | MOLT-4 7.91 µM | Malme-3M 16.6 µM | NCI-H226 20.1 µM | NCI/ADR-RES 7.8 µM | OVCAR-3 14.5 µM | SF-295 10.2 µM | SK-MEL-5 6.1 µM | SN12C 40.4 µM | TK-10 13.8 µM | UACC-62 5.42 µM
